The results in this text go back to ChEMBL document CHEMBL1201862, “PubChem BioAssay data set” (2004).

Experiment [1] addresses Peroxisome proliferator-activated receptor gamma/Nuclear receptor coactivator 2 (Homo sapiens, UniProt P37231). The class given is functional.
The target in experiment [2] is Peroxisome proliferator-activated receptor gamma/Nuclear receptor coactivator 3 (Homo sapiens, UniProt P37231). It counts as functional.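 Further: agonist potency for raising coactivator recruitment to the receptor.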
Experiment [3] concerns the target T1, Estrogen receptor beta (Homo sapiens, UniProt Q92731). As to the kind of experiment: blockers of SRC-3 recruitment to ERβ – biochemical, ELISA, streptavidin-HRP readout, orthogonal assay, confirmation (AID 1060).
The target of experiment [4] is Peroxisome proliferator-activated receptor gamma/Nuclear receptor coactivator 1 (Homo sapiens, UniProt P37231). The class given is functional.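 Further: agonist potency as compounds enhance coactivator SRC-1 recruitment to PPARgamma.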
Experiment [5] deals with T1, Estrogen receptor beta.
Experiment [6] is described as follows: viability of uninfected HEp-2 cells – cell-based, HTS, cytotoxicity control for RSV inhibitor project, dose response (AID 2410). The class given is functional. To be noted: human respiratory syncytial virus.
The next experiment has as its target Cytochrome P450 2C9 (Homo sapiens, UniProt P11712). To be noted: Potency.
Another experiment has as its target Cytochrome P450 3A4 (Homo sapiens, UniProt P08684). To be noted: Potency.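 Further: confirmatory qHTS run detecting inhibitors and substrates of CYP3A4.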
In another experiment the target is T2, Estrogen receptor (Homo sapiens, UniProt P03372).
T2 sequence (P03372 whole entry): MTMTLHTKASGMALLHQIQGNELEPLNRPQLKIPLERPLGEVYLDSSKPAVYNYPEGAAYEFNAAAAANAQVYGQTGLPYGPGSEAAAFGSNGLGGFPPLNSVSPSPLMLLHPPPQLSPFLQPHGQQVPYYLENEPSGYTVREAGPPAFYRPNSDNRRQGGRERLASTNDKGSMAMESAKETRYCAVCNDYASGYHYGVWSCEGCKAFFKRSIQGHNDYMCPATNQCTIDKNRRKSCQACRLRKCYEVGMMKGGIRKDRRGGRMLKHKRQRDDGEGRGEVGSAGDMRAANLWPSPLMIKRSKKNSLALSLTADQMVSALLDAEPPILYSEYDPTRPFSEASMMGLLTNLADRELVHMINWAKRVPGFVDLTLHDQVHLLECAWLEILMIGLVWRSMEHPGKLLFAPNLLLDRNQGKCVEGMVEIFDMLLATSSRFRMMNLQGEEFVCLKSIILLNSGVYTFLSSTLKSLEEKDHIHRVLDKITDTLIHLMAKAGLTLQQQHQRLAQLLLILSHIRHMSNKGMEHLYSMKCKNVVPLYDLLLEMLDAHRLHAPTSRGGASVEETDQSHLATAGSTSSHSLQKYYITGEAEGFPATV

The target of experiment [7] is T3, Alkaline phosphatase, tissue-nonspecific isozyme (Homo sapiens, UniProt P05186).
T3 sequence (P05186 whole entry): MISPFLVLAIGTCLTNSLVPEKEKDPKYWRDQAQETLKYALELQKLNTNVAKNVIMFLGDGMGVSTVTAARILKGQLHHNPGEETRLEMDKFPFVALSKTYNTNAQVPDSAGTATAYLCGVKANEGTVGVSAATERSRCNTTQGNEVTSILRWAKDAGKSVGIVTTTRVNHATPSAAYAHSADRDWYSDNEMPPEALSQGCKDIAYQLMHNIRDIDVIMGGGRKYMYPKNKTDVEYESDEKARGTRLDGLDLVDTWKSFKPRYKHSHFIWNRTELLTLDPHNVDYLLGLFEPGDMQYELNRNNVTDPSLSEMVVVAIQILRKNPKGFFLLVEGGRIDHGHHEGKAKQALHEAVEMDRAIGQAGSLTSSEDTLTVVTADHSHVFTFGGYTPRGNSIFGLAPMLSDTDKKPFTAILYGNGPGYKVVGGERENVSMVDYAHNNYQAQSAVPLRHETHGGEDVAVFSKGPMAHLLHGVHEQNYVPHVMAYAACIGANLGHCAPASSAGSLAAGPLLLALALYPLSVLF
As to the kind of experiment: potency against alkaline phosphatase TNAP – biochemical, luminescent, dose response, SAR follow-up (AID 1056).

Experiment [8] has as its target Glyceraldehyde-3-phosphate dehydrogenase (Homo sapiens, UniProt P04406).
A further experiment has as its target T4, Caspase-3 (Homo sapiens, UniProt P42574).
T4 sequence (P42574 whole entry): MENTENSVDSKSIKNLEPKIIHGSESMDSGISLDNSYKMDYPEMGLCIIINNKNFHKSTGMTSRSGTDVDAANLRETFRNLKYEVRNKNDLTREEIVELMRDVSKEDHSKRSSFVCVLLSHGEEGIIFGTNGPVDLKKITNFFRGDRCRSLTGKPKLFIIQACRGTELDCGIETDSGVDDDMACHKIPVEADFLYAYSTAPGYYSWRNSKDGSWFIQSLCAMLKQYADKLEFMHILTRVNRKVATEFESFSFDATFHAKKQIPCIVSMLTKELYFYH
Briefly: SAR Analysis of small molecule inhibitors of Sentrin-specific proteases (SENPs) using a Caspase-3 Selectivity assay. [Related pubchem assays (depositor defined):AID2540, AID2599, AID434973, AID489001]. The class given is functional.

The target in experiment [9] is T5, Mannose-6-phosphate isomerase (Homo sapiens, UniProt P34949).
T5 sequence (P34949 whole entry): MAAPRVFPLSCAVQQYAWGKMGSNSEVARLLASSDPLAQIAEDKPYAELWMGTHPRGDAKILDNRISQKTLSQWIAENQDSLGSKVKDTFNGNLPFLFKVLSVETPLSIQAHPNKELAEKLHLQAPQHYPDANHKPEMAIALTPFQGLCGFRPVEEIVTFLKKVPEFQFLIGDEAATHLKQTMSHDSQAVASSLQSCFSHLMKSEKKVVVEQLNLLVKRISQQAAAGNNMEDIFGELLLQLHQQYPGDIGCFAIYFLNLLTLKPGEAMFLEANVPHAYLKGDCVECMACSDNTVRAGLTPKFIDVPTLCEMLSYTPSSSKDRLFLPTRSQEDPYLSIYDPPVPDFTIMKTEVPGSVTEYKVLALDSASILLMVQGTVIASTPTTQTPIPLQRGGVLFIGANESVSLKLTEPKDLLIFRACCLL
Briefly: MPI inhibition at elevated mannose 6-phosphate – biochemical, fluorescence intensity, high mannose 6-phosphate, primary screen (AID 1220).

Experiment [10] concerns the target T6, Sentrin-specific protease 7 (Homo sapiens, UniProt Q9BQF6).
T6 sequence (Q9BQF6 whole entry): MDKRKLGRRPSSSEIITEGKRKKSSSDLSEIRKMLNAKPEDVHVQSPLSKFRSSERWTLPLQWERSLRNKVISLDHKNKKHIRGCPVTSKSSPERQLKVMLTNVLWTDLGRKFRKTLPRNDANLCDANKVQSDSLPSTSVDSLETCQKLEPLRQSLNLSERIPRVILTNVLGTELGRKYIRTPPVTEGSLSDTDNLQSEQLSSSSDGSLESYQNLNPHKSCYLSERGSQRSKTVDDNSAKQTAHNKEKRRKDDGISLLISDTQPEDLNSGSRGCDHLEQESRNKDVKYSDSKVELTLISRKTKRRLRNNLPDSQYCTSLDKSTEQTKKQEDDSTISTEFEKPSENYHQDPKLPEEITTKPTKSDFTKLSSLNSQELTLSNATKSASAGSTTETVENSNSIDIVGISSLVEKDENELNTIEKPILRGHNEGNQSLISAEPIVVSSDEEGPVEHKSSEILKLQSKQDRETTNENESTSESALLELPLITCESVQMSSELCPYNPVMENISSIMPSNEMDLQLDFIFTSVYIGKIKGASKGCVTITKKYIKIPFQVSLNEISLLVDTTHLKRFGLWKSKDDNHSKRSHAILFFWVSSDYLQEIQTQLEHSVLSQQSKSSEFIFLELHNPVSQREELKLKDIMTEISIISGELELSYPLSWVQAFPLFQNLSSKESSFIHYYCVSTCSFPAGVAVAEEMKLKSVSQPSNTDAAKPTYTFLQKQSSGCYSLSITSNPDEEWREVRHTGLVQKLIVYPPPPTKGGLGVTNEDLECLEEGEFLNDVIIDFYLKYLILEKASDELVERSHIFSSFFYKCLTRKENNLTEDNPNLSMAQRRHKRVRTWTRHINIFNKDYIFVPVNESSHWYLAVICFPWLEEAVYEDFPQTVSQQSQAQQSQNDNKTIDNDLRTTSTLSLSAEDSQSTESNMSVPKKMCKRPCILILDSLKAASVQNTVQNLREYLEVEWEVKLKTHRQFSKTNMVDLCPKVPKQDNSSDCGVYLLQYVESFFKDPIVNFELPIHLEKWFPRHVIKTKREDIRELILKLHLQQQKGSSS
As to the kind of experiment: inhibition of human SENP7 cleavage activity – biochemical, luminescence, SAR follow-up (AID 504497). It counts as functional.

In experiment [11] the target is T7, Sentrin-specific protease 8 (Homo sapiens, UniProt Q96LD8).
T7 sequence (Q96LD8 whole entry): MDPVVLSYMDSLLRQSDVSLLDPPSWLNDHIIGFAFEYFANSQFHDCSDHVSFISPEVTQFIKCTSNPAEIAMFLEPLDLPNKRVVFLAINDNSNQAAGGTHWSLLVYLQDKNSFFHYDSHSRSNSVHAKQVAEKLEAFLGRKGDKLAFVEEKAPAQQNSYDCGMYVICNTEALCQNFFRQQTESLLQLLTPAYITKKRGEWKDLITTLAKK
As to the kind of experiment: inhibition of human SENP8 cleavage activity – biochemical, luminescence, SAR follow-up (AID 504501). It counts as functional.

The target in experiment [12] is T8, Sentrin-specific protease 6 (Homo sapiens, UniProt Q9GZR1).
T8 sequence (Q9GZR1 whole entry): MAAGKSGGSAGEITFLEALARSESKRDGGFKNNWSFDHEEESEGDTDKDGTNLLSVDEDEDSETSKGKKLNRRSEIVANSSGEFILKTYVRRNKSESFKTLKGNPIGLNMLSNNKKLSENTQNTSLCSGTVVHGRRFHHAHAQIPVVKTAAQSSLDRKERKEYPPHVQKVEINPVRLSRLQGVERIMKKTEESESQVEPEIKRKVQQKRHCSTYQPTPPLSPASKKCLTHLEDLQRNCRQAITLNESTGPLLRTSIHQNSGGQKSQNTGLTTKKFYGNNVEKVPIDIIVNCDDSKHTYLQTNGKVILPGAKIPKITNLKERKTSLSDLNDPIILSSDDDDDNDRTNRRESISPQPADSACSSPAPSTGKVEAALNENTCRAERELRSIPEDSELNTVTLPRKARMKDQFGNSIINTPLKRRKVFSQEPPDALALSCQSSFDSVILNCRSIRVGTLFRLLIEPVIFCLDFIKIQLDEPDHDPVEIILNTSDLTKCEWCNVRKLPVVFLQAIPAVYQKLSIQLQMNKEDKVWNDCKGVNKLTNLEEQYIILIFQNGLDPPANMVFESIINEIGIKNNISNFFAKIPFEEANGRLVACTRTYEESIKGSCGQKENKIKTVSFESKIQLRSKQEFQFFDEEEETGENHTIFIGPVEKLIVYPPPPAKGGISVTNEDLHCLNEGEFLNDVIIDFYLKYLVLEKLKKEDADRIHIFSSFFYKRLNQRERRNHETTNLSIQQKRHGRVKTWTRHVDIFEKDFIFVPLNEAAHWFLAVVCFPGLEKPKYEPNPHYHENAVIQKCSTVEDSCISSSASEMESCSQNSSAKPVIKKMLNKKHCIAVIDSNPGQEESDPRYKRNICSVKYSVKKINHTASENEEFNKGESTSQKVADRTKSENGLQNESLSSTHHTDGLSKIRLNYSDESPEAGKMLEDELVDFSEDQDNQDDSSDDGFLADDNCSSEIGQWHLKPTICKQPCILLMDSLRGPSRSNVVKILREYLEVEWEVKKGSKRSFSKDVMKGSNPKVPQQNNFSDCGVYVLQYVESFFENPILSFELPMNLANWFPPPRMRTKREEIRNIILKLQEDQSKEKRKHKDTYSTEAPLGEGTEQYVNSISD
As to the kind of experiment: SAR Analysis of small molecule inhibitors of Sentrin-specific protease 6 (SENP6) using a Luminescent assay. [Related pubchem assays (depositor defined):AID2582, AID2599]. It counts as functional.

Experiment [13] addresses T5, Mannose-6-phosphate isomerase. As to the kind of experiment: MPI enzyme activity inhibition – biochemical, fluorescence intensity, coupled assay, primary screen (AID 1209).

Values joined by “and” are separate entries in the source; they are usually repeats but may differ in a detail not shown here. Identical values can stand only once. Active and inactive are the calls of the source. Some results are limits rather than exact numbers.

Sequence of Glyceraldehyde-3-phosphate dehydrogenase (P04406 whole entry): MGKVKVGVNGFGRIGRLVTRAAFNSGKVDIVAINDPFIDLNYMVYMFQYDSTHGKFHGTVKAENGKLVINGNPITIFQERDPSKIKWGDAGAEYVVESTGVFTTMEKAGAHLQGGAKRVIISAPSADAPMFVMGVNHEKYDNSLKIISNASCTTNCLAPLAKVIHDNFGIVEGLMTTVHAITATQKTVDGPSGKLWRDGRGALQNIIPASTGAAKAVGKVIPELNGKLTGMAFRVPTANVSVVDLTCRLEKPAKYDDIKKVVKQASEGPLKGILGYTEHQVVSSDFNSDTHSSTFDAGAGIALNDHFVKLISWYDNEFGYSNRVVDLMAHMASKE
Sequence of Cytochrome P450 2C9 (P11712 whole entry): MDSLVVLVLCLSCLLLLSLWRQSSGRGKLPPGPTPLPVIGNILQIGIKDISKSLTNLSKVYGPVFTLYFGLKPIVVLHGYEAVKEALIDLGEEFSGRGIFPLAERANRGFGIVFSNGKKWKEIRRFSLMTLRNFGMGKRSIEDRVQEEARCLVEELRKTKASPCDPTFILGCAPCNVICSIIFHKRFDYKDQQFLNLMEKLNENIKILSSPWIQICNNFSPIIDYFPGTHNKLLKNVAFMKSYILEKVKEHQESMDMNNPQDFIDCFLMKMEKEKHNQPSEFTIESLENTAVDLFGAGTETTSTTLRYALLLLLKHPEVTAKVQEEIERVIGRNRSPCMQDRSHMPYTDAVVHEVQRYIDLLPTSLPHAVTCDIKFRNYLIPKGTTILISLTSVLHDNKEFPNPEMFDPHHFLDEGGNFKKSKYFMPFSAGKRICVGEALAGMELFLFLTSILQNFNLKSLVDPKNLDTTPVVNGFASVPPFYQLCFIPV
Sequence of Cytochrome P450 3A4 (P08684 whole entry): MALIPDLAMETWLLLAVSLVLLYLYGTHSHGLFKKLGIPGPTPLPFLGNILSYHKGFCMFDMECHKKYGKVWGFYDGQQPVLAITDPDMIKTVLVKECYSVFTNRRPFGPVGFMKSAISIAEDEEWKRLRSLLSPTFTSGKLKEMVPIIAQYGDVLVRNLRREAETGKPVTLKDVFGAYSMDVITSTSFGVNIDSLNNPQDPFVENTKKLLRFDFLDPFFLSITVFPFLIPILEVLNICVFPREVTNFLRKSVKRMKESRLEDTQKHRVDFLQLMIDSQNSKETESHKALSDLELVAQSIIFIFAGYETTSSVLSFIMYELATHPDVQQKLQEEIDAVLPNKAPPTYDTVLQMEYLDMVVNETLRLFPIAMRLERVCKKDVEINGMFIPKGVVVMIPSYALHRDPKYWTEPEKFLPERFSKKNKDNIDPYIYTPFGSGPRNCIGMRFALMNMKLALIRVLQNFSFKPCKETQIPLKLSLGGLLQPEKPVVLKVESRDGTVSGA
T1 sequence (Q92731 whole entry): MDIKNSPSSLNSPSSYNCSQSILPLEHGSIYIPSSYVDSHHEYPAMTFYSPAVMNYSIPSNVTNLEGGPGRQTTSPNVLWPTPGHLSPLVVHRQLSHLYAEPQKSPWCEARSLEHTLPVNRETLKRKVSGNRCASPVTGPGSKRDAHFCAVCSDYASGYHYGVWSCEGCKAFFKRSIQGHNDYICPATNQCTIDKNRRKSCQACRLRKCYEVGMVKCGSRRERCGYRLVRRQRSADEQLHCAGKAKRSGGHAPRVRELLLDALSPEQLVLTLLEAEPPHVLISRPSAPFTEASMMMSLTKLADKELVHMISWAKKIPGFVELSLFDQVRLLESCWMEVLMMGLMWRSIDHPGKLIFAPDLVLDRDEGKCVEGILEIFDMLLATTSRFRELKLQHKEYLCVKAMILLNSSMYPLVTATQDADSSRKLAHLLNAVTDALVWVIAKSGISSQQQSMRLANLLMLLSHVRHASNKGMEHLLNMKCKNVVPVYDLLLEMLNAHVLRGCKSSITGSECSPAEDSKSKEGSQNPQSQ
Sequence of Peroxisome proliferator-activated receptor gamma/Nuclear receptor coactivator 2 (P37231 whole entry): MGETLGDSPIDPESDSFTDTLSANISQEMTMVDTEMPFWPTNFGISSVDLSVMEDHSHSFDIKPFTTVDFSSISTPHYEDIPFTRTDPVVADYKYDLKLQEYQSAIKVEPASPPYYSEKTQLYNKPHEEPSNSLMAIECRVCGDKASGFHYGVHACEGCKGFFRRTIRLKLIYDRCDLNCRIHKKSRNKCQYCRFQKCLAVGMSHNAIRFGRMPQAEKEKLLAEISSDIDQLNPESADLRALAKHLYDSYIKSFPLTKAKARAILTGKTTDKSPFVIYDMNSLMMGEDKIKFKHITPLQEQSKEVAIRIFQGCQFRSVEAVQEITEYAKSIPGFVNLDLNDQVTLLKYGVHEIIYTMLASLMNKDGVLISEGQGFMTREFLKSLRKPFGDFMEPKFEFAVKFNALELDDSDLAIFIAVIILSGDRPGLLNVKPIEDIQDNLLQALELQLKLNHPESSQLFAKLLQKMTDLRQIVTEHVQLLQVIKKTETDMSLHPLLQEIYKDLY
Sequence of Peroxisome proliferator-activated receptor gamma/Nuclear receptor coactivator 2 (Q15596 whole entry, further chain): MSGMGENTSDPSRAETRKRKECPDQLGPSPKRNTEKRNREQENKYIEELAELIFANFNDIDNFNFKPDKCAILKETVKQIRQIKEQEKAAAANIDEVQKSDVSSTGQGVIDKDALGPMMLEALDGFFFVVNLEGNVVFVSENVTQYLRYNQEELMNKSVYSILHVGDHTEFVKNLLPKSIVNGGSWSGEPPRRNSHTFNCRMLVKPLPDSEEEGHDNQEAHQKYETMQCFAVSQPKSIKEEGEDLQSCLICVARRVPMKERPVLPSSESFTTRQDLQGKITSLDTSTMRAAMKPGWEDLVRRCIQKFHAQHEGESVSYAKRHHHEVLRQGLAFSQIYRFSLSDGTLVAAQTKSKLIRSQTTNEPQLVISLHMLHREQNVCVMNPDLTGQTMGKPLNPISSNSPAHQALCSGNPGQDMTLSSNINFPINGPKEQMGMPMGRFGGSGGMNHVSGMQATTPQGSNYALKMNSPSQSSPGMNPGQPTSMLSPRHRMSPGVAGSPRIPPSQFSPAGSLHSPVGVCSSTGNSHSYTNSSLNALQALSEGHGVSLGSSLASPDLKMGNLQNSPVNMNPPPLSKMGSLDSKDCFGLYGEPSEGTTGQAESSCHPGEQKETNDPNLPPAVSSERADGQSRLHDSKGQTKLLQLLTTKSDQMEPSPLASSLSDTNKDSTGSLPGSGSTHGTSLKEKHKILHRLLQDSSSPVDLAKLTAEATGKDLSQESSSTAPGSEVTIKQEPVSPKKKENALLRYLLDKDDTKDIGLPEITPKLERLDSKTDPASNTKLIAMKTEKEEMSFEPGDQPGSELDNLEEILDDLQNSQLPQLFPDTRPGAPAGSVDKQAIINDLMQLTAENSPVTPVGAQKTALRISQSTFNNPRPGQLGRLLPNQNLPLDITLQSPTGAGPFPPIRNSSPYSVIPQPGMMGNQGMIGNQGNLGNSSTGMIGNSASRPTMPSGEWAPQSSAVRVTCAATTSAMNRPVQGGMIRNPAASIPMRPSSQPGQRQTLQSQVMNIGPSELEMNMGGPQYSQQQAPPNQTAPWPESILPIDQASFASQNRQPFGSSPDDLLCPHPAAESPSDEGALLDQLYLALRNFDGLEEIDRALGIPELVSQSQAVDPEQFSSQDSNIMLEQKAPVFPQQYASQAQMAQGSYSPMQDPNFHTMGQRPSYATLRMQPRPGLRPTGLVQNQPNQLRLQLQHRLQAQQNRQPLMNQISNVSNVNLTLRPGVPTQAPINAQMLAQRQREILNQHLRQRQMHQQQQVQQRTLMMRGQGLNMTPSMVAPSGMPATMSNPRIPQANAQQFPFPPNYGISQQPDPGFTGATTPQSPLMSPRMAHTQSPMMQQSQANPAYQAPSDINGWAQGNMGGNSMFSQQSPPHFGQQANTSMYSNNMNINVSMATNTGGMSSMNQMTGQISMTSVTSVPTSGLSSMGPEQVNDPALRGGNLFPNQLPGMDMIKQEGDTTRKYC

In the case of `c1csc(Cc2nn3c(-c4n[nH]c5c4CCC5)nnc3s2)c1`, the EC50 in [1], in experiment [2] and in experiment [4] was > 79.4 µM (not active) in each case. Besides, the IC50 against Estrogen receptor beta [3] and on Estrogen receptor beta [5] was > 50 µM (not active) each time.

For `COc1ccccc1/C=C/C(=O)N1CCc2cc(OC)c(OC)cc2C1C` (stereo unspecified), the CC50 in [6] is > 50 µM (active). In the experiment “cells”, the IC50 is 17.8 µM (active).

With `COc1ccc(OC2C(O)COC2/C=C/c2ccccc2)cc1` (stereo unspecified), the concentration at half-maximal activity (AC50) on Cytochrome P450 2C9 was 3.16 µM (inconclusive) and 2.51 µM (inconclusive); on Cytochrome P450 3A4, 3.16 µM (inconclusive) and 3.98 µM (inconclusive).

Consider `Cc1ccc(NS(=O)(=O)c2cccc(C(=O)OCC(=O)NCc3ccco3)c2)cc1`, for which the IC50 on Estrogen receptor is recorded as 30.6 µM (not active).

With `COC(=O)c1ccc(OC)c(S(=O)(=O)Nc2ccc3ccccc3c2)c1`, the IC50 was > 10 µM (inactive) in experiment [7] and > 10 µM (inconclusive) in experiment [8].

For the molecule `Cc1ccc(NC(=O)C2CCCN2S(=O)(=O)c2cccc3cccnc23)c(C)c1` (stereo unspecified), the CC50 in experiment [6] was 42.9 µM (active). Also, in the experiment “cells”, the IC50 was 1.86 µM (active).

As to `Oc1cccc(/C=N/Nc2cc(N3CCOCC3)nc(N3CCOCC3)n2)c1`, the IC50 on Caspase-3 is > 99 µM (inactive); in experiment [9], > 50 µM (not active); in [10], 80.5 µM (active); in [11] it was > 99 µM (inactive); in [12], 89.1 µM (active); in experiment [13] it was > 50 µM (not active).

On to `O=C1C(Cl)=C(N2CCN(C/C=C/c3ccccc3)CC2)C(=O)N1c1ccc(C(F)(F)F)cc1`, for which the IC50 in experiment [8] was > 50 µM (inconclusive).
